Measured values reported in US5955616A, “Pyrrolidine derivatives having phospholipase A2 inhibitory activity” (Shionogi & Co., Ltd., priority 1995, dated 1999).

Target: T1, cPLA2 (Homo sapiens, UniProt P47712)
T1 sequence (P47712 1-749): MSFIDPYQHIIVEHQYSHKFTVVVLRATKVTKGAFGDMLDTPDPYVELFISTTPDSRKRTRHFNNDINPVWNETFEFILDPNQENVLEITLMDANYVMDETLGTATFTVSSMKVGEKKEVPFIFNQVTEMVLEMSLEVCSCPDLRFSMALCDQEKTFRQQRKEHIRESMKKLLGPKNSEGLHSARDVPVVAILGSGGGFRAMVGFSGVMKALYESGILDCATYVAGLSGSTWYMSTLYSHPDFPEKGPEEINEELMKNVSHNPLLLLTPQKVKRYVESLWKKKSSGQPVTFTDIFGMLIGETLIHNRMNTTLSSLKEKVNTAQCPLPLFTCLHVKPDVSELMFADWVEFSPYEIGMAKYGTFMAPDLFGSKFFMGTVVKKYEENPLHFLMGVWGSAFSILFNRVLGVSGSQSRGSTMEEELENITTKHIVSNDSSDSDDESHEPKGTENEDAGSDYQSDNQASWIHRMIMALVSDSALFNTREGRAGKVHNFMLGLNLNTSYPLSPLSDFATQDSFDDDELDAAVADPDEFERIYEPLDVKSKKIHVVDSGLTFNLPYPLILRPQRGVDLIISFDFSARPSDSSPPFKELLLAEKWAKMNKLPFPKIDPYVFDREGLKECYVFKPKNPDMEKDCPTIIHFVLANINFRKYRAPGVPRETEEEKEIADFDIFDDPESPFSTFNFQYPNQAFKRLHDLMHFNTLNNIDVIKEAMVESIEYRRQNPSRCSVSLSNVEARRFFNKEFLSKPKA
Test: cPLA2 Inhibitory activity (release of radiolabelled fatty acid from liposomes)
Format: biochemical
Conditions: 50 mM HEPES pH 7.4, 1 mM CaCl2, 2.5 μM radio-labeled phosphatidylcholine, 15 min at 37° C; read-out: cPLA2 Inhibition Activity IC50
Method: Experiment 1 cPLA2 Inhibitory activity
The compounds of the present invention was tested for the cPLA2 inhibitory activity by a method known in a literature (R. M. Kramer, E. F. Roberts, J. Manetta and J. E. Putnam, J. Biol. Chem., 268(8), 5268-5272 ([…])), as outlined below.
As a substrate, liposomes which contain 1-palmitoyl-2-[^14 C]-arachidonoyl-sn-glycero-3-phosphocholine and sn-1,2-dioleoylglycerol at the ratio of 2:1 and have treated ultrasonically were used. The substrate was added to a 50 mM HEPES buffer (pH 7.4) (200 μl) containing 1 mM CaCl2, 2 mM dithiothreitol, 150 mM NaCl, 0.1 mg/ml BSA so as to make the concentration of radio-labeled phosphatidylcholine 2.5 μM. To the solution was added a compound of the present invention in DMSO (10 μl) to obtain reaction solutions each containing the test compound at 250 μM, 50 μM, 10 μm, 2 μM, and 0.4 μM. The reaction was allowed to start by adding an enzyme (cPLA2) (4 ng) and continued for 15 min at 37° C.
The amount of fatty acids released by the reaction was measured on a liquid scintillation counter. Control was obtained by conducting the experiment in the same manner except that a compound of the present invention was not added. The inhibitory activity was expressed as percent (%) to the control value, which was used for the calculation of the concentration required for 50% inhibition (IC50, μM).

Row | IC50 | SMILES
1 | 6.3 µM | O=C1NC(=S)S/C1=C\c1ccc(NC(=O)[C@@H]2C[C@H](SCc3ccccc3)CN2S(=O)(=O)c2cccc3cccnc23)cc1 [Compound A-51]
2 | 10 µM | Cc1cc(C)c(COC2C[C@@H](C(=O)Nc3ccc(C=C4SC(=O)NC4=O)cc3)N(C(=O)c3ccccc3)C2)c(C)c1 (stereo partly shown) [Compound G-6]
3 | 17 µM | O=C1NC(=O)/C(=C/c2ccc(NC(=O)[C@@H]3CC(OCc4ccc(Cl)cc4)CN3C(=O)c3ccccc3)cc2)S1 (stereo partly shown) [Compound G-3]
4 | 7.7 µM | O=C1NC(=O)C(=Cc2ccc(OC[C@@H]3C[C@H](SCc4ccccc4)CN3C(=O)c3ccccc3)cc2)S1 [Compound E-5]
5 | 0.85 µM | O=C1NC(=O)/C(=C/c2ccc(CCC[C@@H]3C[C@H](SC(c4ccccc4)(c4ccccc4)c4ccccc4)CN3C(=O)CCc3ccccc3)cc2)S1 [Compound E-3]
6 | 14 µM | O=C1NC(=O)/C(=C/c2ccc(NC(=O)[C@@H]3CC(OCc4ccc(C(F)(F)F)cc4)CN3C(=O)c3ccccc3)cc2)S1 (stereo partly shown) [Compound G-4]
7 | 6.3 µM | CS[C@H]1C[C@@H](C(=O)Nc2ccc(/C=C3\SC(=S)NC3=O)cc2)N(S(=O)(=O)c2ccc(Br)cc2)C1 [Compound A-34]
8 | 23 µM | O=C1NC(=O)/C(=C/c2ccc(NC(=O)[C@@H]3C[C@@H](SCc4ccccc4)CN3S(=O)(=O)c3ccc(-c4ccccc4)cc3)cc2)S1 [Compound M-1]
9 | 21 µM | O=C1NC(=O)/C(=C/c2ccc(NC(=O)[C@@H]3C[C@H](NCc4ccccc4)CN3C(=O)Cc3ccc(Br)cc3)cc2)S1 [Compound J-1]
10 | 6.4 µM | CC(C)S(=O)(=O)N1C[C@@H](SCc2ccccc2)C[C@H]1C(=O)Nc1ccc(C=C2SC(=S)NC2=O)cc1 [Compound A-33]
11 | 4.3 µM | CCCCCCCCCCCCCC(=O)N1C[C@@H](SC)C[C@H]1C(=O)Nc1ccc(C=C2SC(=S)NC2=O)cc1 [Compound A-19]
12 | 12 µM | CS[C@H]1C[C@@H](C(=O)Nc2ccc(/C=C3\SC(=O)NC3=O)cc2)N(S(=O)(=O)c2ccc3ccccc3c2)C1 [Compound A-50]
13 | 1.1 µM | O=C1NC(=O)/C(=C/c2ccc(COC[C@@H]3C[C@H](SC(c4ccccc4)(c4ccccc4)c4ccccc4)CN3C(=O)CCc3ccccc3)cc2)S1 [Compound E-1]
14 | 0.44 µM | O=C1NC(=O)C(=Cc2ccc(S(=O)(=O)NCC3CC(SC(c4ccccc4)(c4ccccc4)c4ccccc4)CN3C(=O)c3ccccc3)cc2)S1 (stereo not shown) [Compound B-9]
15 | 14 µM | Cc1ccc(CS(=O)(=O)N2CC(OCc3ccc(F)cc3F)C[C@H]2CNC(=O)c2ccc(/C=C3\SC(=O)NC3=O)cc2)cc1 (stereo partly shown) [Compound H-3]
16 | 11 µM | CC(C)(C)OC(=O)N1CC(OCc2ccc(F)cc2F)C[C@H]1CNC(=O)c1ccc(/C=C2\SC(=S)NC2=O)cc1 (stereo partly shown) [Compound H-7]
17 | 4.8 µM | CN(C)S(=O)(=O)N1C[C@@H](SCc2ccccc2)C[C@H]1C(=O)Nc1ccc(C=C2SC(=S)NC2=O)cc1 [Compound A-32]
18 | 1.3 µM | O=C1NC(=O)C(=Cc2ccc(S(=O)(=O)NC[C@@H]3C[C@H](SC(c4ccccc4)c4ccccc4)CN3C(=O)c3ccccc3)cc2)S1 [Compound B-8]
19 | 26 µM | COC1C[C@@H](CNC(=O)c2ccc(/C=C3\SC(=O)NC3=O)cc2)N(S(=O)(=O)c2ccc(Cc3ccccc3)cc2)C1 (stereo partly shown) [Compound H-4]
20 | 1.7 µM | CC(C)(C)OC(=O)N1CC(OCc2ccc(F)cc2F)C[C@H]1CNC(=O)c1ccc(/C=C2\SC(=O)NC2=O)cc1 (stereo partly shown) [Compound H-6]
21 | 5.3 µM | O=C1NC(=S)S/C1=C\c1ccc(NC(=O)[C@@H]2CCCN2C(=O)Cc2ccc(Br)cc2)cc1 [Compound L-1]

Row | IC50 | SMILES
22 | 3.5 µM | O=C1NC(=O)C(=C(CO)c2ccc(NC(=O)C3CC(OC(c4ccccc4)(c4ccccc4)c4ccccc4)CN3C(=O)c3ccccc3)cc2)S1 (stereo not shown) [Compound I-2]
23 | 4.2 µM | O=C1NC(=O)/C(=C/c2ccc(NC(=O)[C@@H]3CC(OC(c4ccccc4)c4ccccc4)CN3C(=O)c3ccccc3)cc2)S1 (stereo partly shown) [Compound G-9]
24 | 20 µM | O=C1NC(=O)/C(=C/c2ccc(NC(=O)[C@@H]3CC(OCc4ccc(F)cc4)CN3C(=O)c3ccccc3)cc2)S1 (stereo partly shown) [Compound G-2]
25 | 26 µM | O=C1NC(=O)C(=C(CO)c2ccc(NC(=O)[C@@H]3CC(OC(c4ccccc4)c4ccccc4)CN3C(=O)c3ccccc3)cc2)S1 (stereo partly shown) [Compound I-1]
26 | 3.8 µM | Cc1cc(C)c(CS[C@H]2C[C@@H](C(=O)Nc3ccc(C=C4SC(=O)NC4=O)cc3)N(C(=O)c3ccccc3)C2)c(C)c1 [Compound A-10]
27 | 8.6 µM | CC(=O)Nc1nc(C)c(S(=O)(=O)N2C[C@@H](SCc3ccccc3)C[C@H]2C(=O)Nc2ccc(/C=C3\SC(=S)NC3=O)cc2)s1 [Compound A-59]
28 | 14 µM | O=C1NC(=S)S/C1=C\c1ccc(NC(=O)[C@@H]2C[C@H](SCc3ccccc3)CN2S(=O)(=O)N2CCOCC2)cc1 [Compound A-36]
29 | 1.9 µM | CS[C@H]1C[C@@H](C(=O)Nc2ccc(/C=C3\SC(=O)NC3=O)cc2)N(S(=O)(=O)c2ccc(Br)cc2)C1 [Compound A-35]
30 | 15 µM | CS[C@H]1C[C@@H](C(=O)Nc2ccc(C=C3SC(=S)NC3=O)cc2)N(C(=O)c2ccc(C(F)(F)F)cc2)C1 [Compound A-15]
31 | 4.8 µM | CCCCS(=O)(=O)N1C[C@@H](SCc2ccccc2)C[C@H]1C(=O)Nc1ccc(C=C2SC(=S)NC2=O)cc1 [Compound A-31]
32 | 10 µM | O=C1NC(=O)/C(=C/c2ccc(NC(=O)[C@H]3C[C@@H](SCc4ccccc4)CN3S(=O)(=O)c3ccc(-c4ccccc4)cc3)cc2)S1 [Compound M-3]
33 | 6.4 µM | O=C1NC(=O)/C(=C/c2ccc(C(=O)NC[C@@H]3CC(OCc4ccc(F)cc4F)CN3S(=O)(=O)c3ccc(Cc4ccccc4)cc3)cc2)S1 (stereo partly shown) [Compound H-5]
34 | 10 µM | O=C1NC(=S)SC1=C[C@@H]1C[C@H](SCc2ccccc2)CN1S(=O)(=O)c1ccc(-c2ccccc2)cc1 [Compound F-2]
35 | 6.6 µM | O=C1NC(=O)/C(=C/c2ccc(S(=O)(=O)NC[C@@H]3CC(OCc4ccc(F)cc4F)CN3S(=O)(=O)c3ccc(Cc4ccccc4)cc3)cc2)S1 (stereo partly shown) [Compound H-20]
36 | 18 µM | CC(=O)N1C[C@@H](SCc2ccccc2)C[C@H]1C(=O)Nc1ccc(C=C2SC(=S)NC2=O)cc1 [Compound A-14]
37 | 6.7 µM | O=C1NC(=O)/C(=C/c2ccc(C(=O)NC[C@@H]3CC(OC(c4ccccc4)c4ccccc4)CN3C(=O)c3ccccc3)cc2)S1 (stereo partly shown) [Compound H-1]
38 | 6.2 µM | O=C1NC(=O)/C(=C/c2ccc(C(=O)NC[C@@H]3C[C@H](OC(c4ccccc4)c4ccccc4)CN3C(=O)c3cccc(OCN4C(=O)c5ccccc5S4(=O)=O)c3)cc2)S1 [Compound H-12]
39 | 6 µM | CS[C@H]1C[C@@H](C(=O)Nc2ccc(/C=C3\SC(=S)NC3=O)cc2)N(S(=O)(=O)c2ccc(Cc3ccccc3)cc2)C1 [Compound A-47]
40 | 11 µM | CC(=O)Oc1ccc(OC(C)=O)c(CCCCCCC(=O)N2C[C@@H](OC(c3ccccc3)c3ccccc3)C[C@H]2CNC(=O)c2ccc(/C=C3\SC(=O)NC3=O)cc2)c1 [Compound H-15]
41 | 17 µM | CS[C@H]1C[C@@H](C(=O)Nc2ccc(/C=C3\SC(=S)NC3=O)cc2)N(S(=O)(=O)c2ccc(N(C)C)cc2)C1 [Compound A-49]
42 | 8.1 µM | O=C1NC(=O)/C(=C/c2ccc(C(=O)NC[C@@H]3CC(OCc4ccc(F)cc4F)CN3S(=O)(=O)Cc3ccc(Br)cc3)cc2)S1 (stereo partly shown) [Compound H-2]

Row | SMILES | IC50
43 | CC(C)(C)[Si](C)(C)N1C(=O)C[C@H]1C(=O)N1C[C@@H](OC(c2ccccc2)c2ccccc2)C[C@H]1CNC(=O)c1ccc(/C=C2\SC(=O)NC2=O)cc1 [Compound H-14] | 8.2 µM
